Several values for one entry are separate records, joined by “and”; a condition that tells them apart may be missing. Equal values may be shown once. Inconclusive results and toxic doses are left out.
Test system: P388 leukemia ip, CD2F1 mice, survival T/C
Test: NCI In Vivo Anticancer Drug Screen. Data for tumor model P388 Leukemia (intraperitoneal) in CD2F1 (CDF1) mice
Settings: endpoint: median survival time, higher = longer survival
Method in brief: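 Mice carrying the transplanted tumor received test compound or vehicle. Survival was recorded in each group, and the value is the treated-group measurement divided by that of the vehicle-treated control group.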

[1] = dose: 50.0 mg/kg/injection, schedule: Q01DX005 (ip), vehicle: saline
[2] = dose: 100.0 mg/kg/injection, schedule: Q01DX005 (ip), vehicle: saline
[3] = dose: 200.0 mg/kg/injection, schedule: Q01DX005 (ip), vehicle: saline
[4] = dose: 50.0 mg/kg/injection, schedule: Q01DX005 (ip), vehicle: saline with Tween-80
[5] = dose: 60.0 mg/kg/injection, schedule: Q01DX005 (ip), vehicle: Klucel (hydroxypropylcellulose) (HPC)
[6] = dose: 240.0 mg/kg/injection, schedule: Q01DX005 (ip), vehicle: Klucel (hydroxypropylcellulose) (HPC)
[7] = dose: 25.0 mg/kg/injection, schedule: Q01DX005 (ip), vehicle: Klucel (hydroxypropylcellulose) (HPC)
[8] = dose: 100.0 mg/kg/injection, schedule: Q01DX005 (ip), vehicle: Klucel (hydroxypropylcellulose) (HPC)
[9] = dose: 100.0 mg/kg/injection, schedule: Q01DX005 (ip), vehicle: saline with Tween-80
[10] = dose: 200.0 mg/kg/injection, schedule: Q01DX005 (ip), vehicle: saline with Tween-80
[11] = dose: 50.0 mg/kg/injection, schedule: Q01DX009 (ip), vehicle: saline with Tween-80
[12] = dose: 100.0 mg/kg/injection, schedule: Q01DX009 (ip), vehicle: saline with Tween-80

In the case of `O=[N+]([O-])c1nccn1CC(O)CF` (stereo unspecified), the T/C (dose: 86.4 mg/kg/injection, schedule: Q01DX005 (ip), vehicle: saline + Tween-80 + alcohol) is reported as 104 % of control, the T/C (dose: 144.0 mg/kg/injection, schedule: Q01DX005 (ip), vehicle: saline + Tween-80 + alcohol) is reported as 89 % of control and the T/C (dose: 216.0 mg/kg/injection, schedule: Q01DX001 (ip), vehicle: saline + Tween-80 + alcohol) is reported as 100 % of control. The T/C (dose: 216.0 mg/kg/injection, schedule: Q01DX001 (ip), vehicle: saline with Tween-80) was 100 % of control, the T/C (dose: 240.0 mg/kg/injection, schedule: Q01DX005 (ip), vehicle: saline + Tween-80 + alcohol) was 103 % of control and the T/C (dose: 360.0 mg/kg/injection, schedule: Q01DX001 (ip), vehicle: saline + Tween-80 + alcohol) was 104 % of control. The T/C (dose: 360.0 mg/kg/injection, schedule: Q01DX001 (ip), vehicle: saline with Tween-80) was 104 % of control, the T/C (dose: 600.0 mg/kg/injection, schedule: Q01DX001 (ip), vehicle: saline + Tween-80 + alcohol) was 101 % of control and the T/C (dose: 600.0 mg/kg/injection, schedule: Q01DX001 (ip), vehicle: saline with Tween-80) was 101 % of control.
`C=CCCCC(C#N)c1ccc2c(c1)OCO2` (stereo unspecified) was tested, and the T/C [1] was 105 % of control, the T/C [2] was 105 % of control and the T/C [3] was 101 % of control.
In the case of `CC(=O)Nc1c(Cl)cc2c(c1Cl)Cc1cc(N(CCO)CCO)ccc1-2`, the T/C (dose: 6.25 mg/kg/injection, schedule: Q01DX009 (ip), vehicle: saline) is reported as 97 % of control, the T/C (dose: 12.5 mg/kg/injection, schedule: Q01DX009 (ip), vehicle: saline) is reported as 93 % of control and the T/C (dose: 25.0 mg/kg/injection, schedule: Q01DX009 (ip), vehicle: saline) is reported as 93 % of control. For the same molecule, the T/C (dose: 50.0 mg/kg/injection, schedule: Q01DX009 (ip), vehicle: saline) was 94 % of control.
With `Cc1ccc2c3c(c(=O)oc2c1)[C@H](C)C[C@@](C)(CO)O3` the T/C (dose: 60.0 mg/kg/injection, schedule: Q01DX005 (ip), vehicle: saline with Tween-80) was 113 % of control, the T/C (dose: 120.0 mg/kg/injection, schedule: Q01DX005 (ip), vehicle: saline with Tween-80) was 107 % of control and the T/C (dose: 240.0 mg/kg/injection, schedule: Q01DX005 (ip), vehicle: saline with Tween-80) was 100 % of control.
With `COc1ccc2c(c1)-c1nn(CCCN(C)C)c3ccc([N+](=O)[O-])c(c13)N2` the T/C (dose: 4.5 mg/kg/injection, schedule: Q01DX005 (ip), vehicle: water) was 169 % of control, the T/C (dose: 6.25 mg/kg/injection, schedule: Q01DX005 (ip), vehicle: water) was 189 % of control and the T/C (dose: 7.5 mg/kg/injection, schedule: Q01DX005 (ip), vehicle: water) was 181 % of control. For the same molecule, the T/C (dose: 12.5 mg/kg/injection, schedule: Q01DX005 (ip), vehicle: water) was 213 % of control and 216 % of control and 227 % of control, the T/C (dose: 21.0 mg/kg/injection, schedule: Q01DX005 (ip), vehicle: water) was 253 % of control and the T/C (dose: 25.0 mg/kg/injection, schedule: Q01DX005 (ip), vehicle: water) was 261 % of control. For the same molecule, the T/C (dose: 35.0 mg/kg/injection, schedule: Q01DX005 (ip), vehicle: water) was 290 % of control.
`C/C(=N\NC(=O)c1ccncc1)c1cccc(/C(C)=N/NC(=O)c2ccncc2)n1.CC(=O)[O-].CC(=O)[O-].[Zn+2]` was tested, and the T/C (dose: 12.5 mg/kg/injection, schedule: Q01DX005 (ip), vehicle: saline with Tween-80) was 110 % of control, the T/C (dose: 25.0 mg/kg/injection, schedule: Q01DX005 (ip), vehicle: saline with Tween-80) was 104 % of control and the T/C [4] was 88 % of control and 93 % of control.
`O=c1ncccn1[C@@H]1O[C@H](CO)[C@H](O)C1O` (stereo partly specified) was tested, and the T/C (dose: 6.25 mg/kg/injection, schedule: Q01DX009 (ip), vehicle: water) was 103 % of control, the T/C (dose: 12.5 mg/kg/injection, schedule: Q01DX009 (ip), vehicle: water) was 104 % of control and the T/C (dose: 25.0 mg/kg/injection, schedule: Q01DX009 (ip), vehicle: water) was 101 % of control. For the same molecule, the T/C (dose: 50.0 mg/kg/injection, schedule: Q01DX009 (ip), vehicle: water) was 102 % of control, the T/C (dose: 100.0 mg/kg/injection, schedule: Q01DX009 (ip), vehicle: water) was 108 % of control and the T/C (dose: 400.0 mg/kg/injection, schedule: Q01DX009 (ip), vehicle: saline) was 152 % of control.
With `CC1(OC(=O)c2ccc([N+](=O)[O-])cc2)CC(C)(C)[N+]([O-])=N1` (stereo unspecified) the T/C (dose: 12.5 mg/kg/injection, schedule: Q01DX009 (ip), vehicle: other) was 102 % of control, the T/C (dose: 25.0 mg/kg/injection, schedule: Q01DX009 (ip), vehicle: other) was 102 % of control and the T/C (dose: 50.0 mg/kg/injection, schedule: Q01DX009 (ip), vehicle: other) was 109 % of control. The T/C (dose: 100.0 mg/kg/injection, schedule: Q01DX009 (ip), vehicle: other) was 100 % of control and the T/C (dose: 200.0 mg/kg/injection, schedule: Q01DX009 (ip), vehicle: other) was 94 % of control.
`NC(CSCc1ccccc1)P(=O)(O)O` (stereo unspecified) was tested, and the T/C [5] was 105 % of control, the T/C (dose: 120.0 mg/kg/injection, schedule: Q01DX005 (ip), vehicle: Klucel (hydroxypropylcellulose) (HPC)) was 98 % of control and the T/C [6] was 91 % of control.
With `Cc1cc(O)c(C=Nc2ccc3ccccc3c2)c2c1C(=O)Oc1c(CO)c(O)c(C(=O)O)c(C=Nc3ccc4ccccc4c3)c1O2` the T/C (dose: 12.5 mg/kg/injection, schedule: Q01DX005 (ip), vehicle: Klucel (hydroxypropylcellulose) (HPC)) was 86 % of control and 90 % of control, the T/C [7] was 104 % of control and the T/C [8] was 88 % of control and 92 % of control.
`CCNC(=O)/C=C/c1cccc(Br)c1` was tested, and the T/C [4] was 105 % of control, the T/C [9] was 105 % of control and the T/C [10] was 98 % of control.
For `CCCCC(CC)C(=O)OCCCNC(=O)C(C)OC(=O)C(CC)CCCC` (stereo unspecified), the T/C [4] was 104 % of control, the T/C [9] was 87 % of control and the T/C [10] was 104 % of control.
`O=NN(CC1(O)OCC(O)C(O)C1O)C(Cc1ccccc1)C(=O)O` (stereo unspecified) was tested, and the T/C [1] was 104 % of control, the T/C [2] was 103 % of control and the T/C [3] was 97 % of control.
In the case of `COc1ccc(N2C(=O)C(N=Nc3ccc(S(=O)(=O)Nc4ncccn4)cc3)C(=O)N(c3ccccc3)C2=S)cc1` (stereo unspecified), the T/C [1] is reported as 103 % of control, the T/C [2] is reported as 95 % of control and the T/C [3] is reported as 98 % of control.
`C=CCNC1=C2C[C@@H](C)C[C@H](OC)[C@H](O)[C@@H](C)/C=C(\C)[C@H](OC(N)=O)[C@@H](OC)/C=C\C=C(/C)C(=O)NC(=CC1=O)C2=O` was tested, and the T/C (dose: 6.25 mg/kg/injection, schedule: Q01DX009 (ip), vehicle: DMSO) was 108 % of control, the T/C (dose: 6.25 mg/kg/injection, schedule: Q01DX009 (ip), vehicle: distilled water + Tween-80) was 112 % of control and the T/C (dose: 12.5 mg/kg/injection, schedule: Q01DX009 (ip), vehicle: DMSO) was 100 % of control. For the same molecule, the T/C (dose: 12.5 mg/kg/injection, schedule: Q01DX009 (ip), vehicle: distilled water + Tween-80) was 112 % of control and the T/C (dose: 25.0 mg/kg/injection, schedule: Q01DX009 (ip), vehicle: DMSO) was 107 % of control.
`Cc1cc(=O)c2c(C)nn(-c3ccccc3)c2[nH]1` was tested, and the T/C (dose: 15.0 mg/kg/injection, schedule: Q01DX005 (ip), vehicle: Klucel (hydroxypropylcellulose) (HPC)) was 98 % of control, the T/C (dose: 30.0 mg/kg/injection, schedule: Q01DX005 (ip), vehicle: Klucel (hydroxypropylcellulose) (HPC)) was 100 % of control and the T/C [5] was 94 % of control. For the same molecule, the T/C [6] was 93 % of control.
With `O=C1OC2=CC=CC=CC2C12C1C=CC=CC12` (stereo unspecified) the T/C [11] was 100 % of control, the T/C [12] was 105 % of control and the T/C (dose: 200.0 mg/kg/injection, schedule: Q01DX009 (ip), vehicle: saline with Tween-80) was 104 % of control.
For `CC1=CCC2CN(CCN(C)C)CC2C1` (stereo unspecified), the T/C [4] was 100 % of control and the T/C [9] was 99 % of control.
`CCn1c2ccccc2c2ccc(N=Nc3ccc(N(C)C)cc3)cc21` was tested, and the T/C [11] was 111 % of control and 112 % of control and 113 % of control and the T/C [12] was 108 % of control and 118 % of control.
In the case of `CCc1cc2c(cc1C(C)=O)C(C)(C)CCC2(C)C`, the T/C [11] is reported as 94 % of control and the T/C [12] is reported as 110 % of control.
In the case of `N/C(=N\N=C/c1ccccc1)NN(Cc1ccccc1)N=O`, the T/C [7] is reported as 100 % of control, the T/C (dose: 50.0 mg/kg/injection, schedule: Q01DX005 (ip), vehicle: Klucel (hydroxypropylcellulose) (HPC)) is reported as 92 % of control and the T/C [8] is reported as 94 % of control.
`CC(=O)N1CCc2cc([N+](=O)[O-])ccc21` was tested, and the T/C (dose: 50.0 mg/kg/injection, schedule: Q01DX009 (ip), vehicle: Klucel (hydroxypropylcellulose) (HPC)) was 99 % of control, the T/C (dose: 100.0 mg/kg/injection, schedule: Q01DX009 (ip), vehicle: Klucel (hydroxypropylcellulose) (HPC)) was 113 % of control and the T/C (dose: 200.0 mg/kg/injection, schedule: Q01DX009 (ip), vehicle: Klucel (hydroxypropylcellulose) (HPC)) was 100 % of control. The T/C (dose: 400.0 mg/kg/injection, schedule: Q01DX009 (ip), vehicle: Klucel (hydroxypropylcellulose) (HPC)) was 110 % of control.
`Cc1c2ccncc2c(CN(CCCl)CCCl)c2c3ccccc3n(C)c12` was tested, and the T/C (dose: 20.0 mg/kg/injection, schedule: Q01DX005 (ip), vehicle: saline) was 150 % of control and 160 % of control, the T/C [1] was 118 % of control and the T/C [2] was 182 % of control.
